Data from PubChem BioAssay (NCI).
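Dose response: 5 concentrations. Exposure: 48 h. Format: 96-well plates. Endpoint: linear interpolation; highest concentration if not reached. At the GI50, growth is halved. TGI denotes the concentration required for complete inhibition of growth.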

Experiments:
Experiment in all cases: growth of human tumour cells (NCI), 48 h
EKVX NSCLC = system: EKVX NSCLC
HS 578T breast = system: HS 578T breast
IGROV1 ovarian = system: IGROV1 ovarian
MALME-3M melanoma = system: MALME-3M melanoma
NCI-H23 lung = system: NCI-H23 lung
NCI-H522 lung = system: NCI-H522 lung
OVCAR-3 ovarian = system: OVCAR-3 ovarian
SF-268 CNS = system: SF-268 CNS
T-47D breast = system: T-47D breast
UACC-257 melanoma = system: UACC-257 melanoma

SMILES | TGI (EKVX NSCLC) [µM] | TGI (HS 578T breast) [µM] | TGI (IGROV1 ovarian) [µM] | TGI (MALME-3M melanoma) [µM] | TGI (NCI-H23 lung) [µM] | TGI (NCI-H522 lung) [µM] | TGI (OVCAR-3 ovarian) [µM] | TGI (SF-268 CNS) [µM] | TGI (T-47D breast) [µM] | TGI (UACC-257 melanoma) [µM] | GI50 (EKVX NSCLC) [µM] | GI50 (HS 578T breast) [µM] | GI50 (IGROV1 ovarian) [µM] | GI50 (MALME-3M melanoma) [µM] | GI50 (NCI-H23 lung) [µM] | GI50 (NCI-H522 lung) [µM] | GI50 (OVCAR-3 ovarian) [µM] | GI50 (SF-268 CNS) [µM] | GI50 (T-47D breast) [µM] | GI50 (UACC-257 melanoma) [µM]
Cc1cc2c(cc1C)[n+](=O)c(C(=O)N1CCN(c3ccc([N+](=O)[O-])cc3)CC1)c(C)n2[O-] | 87.4 | > 100 | 87.7 | > 100 | > 100 | > 100 | > 100 | 57.1 | > 100 | > 100 | – | – | – | – | – | – | – | – | – | –
CN(C)CCCNc1nnc(NCCCN(C)C)c2c(=O)c3sccc3[nH]c12 | 65.6 | > 88.6 | > 100 | 35.5 | > 100 | 17.3 | > 100 | 25.7 | > 51.5 | > 100 | – | – | – | – | – | – | – | – | – | –
COc1cc2c(cc1OC)C1(c3ccccc3)CN(C2)Cc2cc(OC)c(OC)cc21 | > 100 | 75.5 | > 100 | > 100 | 68.3 | > 100 | > 100 | > 100 | > 100 | > 100 | – | – | – | – | – | – | – | – | – | –
Cc1ccc2c(=O)c(-c3nnc(N)s3)c[nH]c2n1 | > 100 | > 100 | > 100 | > 100 | > 100 | > 100 | > 100 | > 100 | > 100 | > 100 | – | – | – | – | – | – | – | – | – | –
Cc1ccc(S(=O)(=O)Oc2cc(S(=O)(=O)O)cc3cc(S(=O)(=O)O)cc(N)c23)cc1 | > 100 | > 100 | > 100 | > 100 | > 100 | > 100 | > 100 | > 100 | > 100 | > 100 | – | – | – | – | – | – | – | – | – | –
CC1C/C(=N\N(C)C)C(C#N)(C#N)C1(C#N)C#N (stereo not given) | 56.1 | > 88.3 | 38.8 | 13.7 | 43.1 | 4.13 | 33.9 | 24.8 | 37.7 | 28 | – | – | – | – | – | – | – | – | – | –
COc1ccc(N[C@H](CS(=O)c2ccc(C)cc2)C(F)(F)C(F)(F)F)cc1 (stereo not given in full) | > 100 | > 100 | > 100 | > 100 | > 100 | > 100 | > 100 | > 100 | > 100 | > 100 | – | – | – | – | – | – | – | – | – | –
N#CC(C#N)=C(N)/C(C#N)=C/c1cc(O)c(O)c(Br)c1 | > 100 | > 100 | > 100 | > 100 | > 100 | > 100 | 93.6 | > 100 | > 100 | > 100 | – | – | – | – | – | – | – | – | – | –
COC(=O)C(Cc1ccccc1I)C1=CCC2(CC1)OCCO2 (stereo not given) | > 100 | 77.5 | > 100 | 56.5 | 95.1 | 53.7 | 81.3 | > 100 | 39.7 | 97.1 | – | – | – | – | – | – | – | – | – | –
CC(C)N=C(NC#N)NS(=O)(=O)c1cnccc1Nc1ccc(Cl)cc1 | > 100 | > 100 | > 100 | > 100 | > 100 | > 100 | > 100 | > 100 | > 100 | > 100 | – | – | – | – | – | – | – | – | – | –
CCn1c(=O)ccc2ccc(N(CCO)CCO)nc21 | > 100 | > 100 | > 100 | > 100 | > 100 | > 100 | > 100 | > 100 | > 100 | > 100 | – | – | – | – | – | – | – | – | – | –
COC(=NCCC1=CCCCC1)OC | > 100 | > 100 | > 100 | > 100 | > 100 | > 100 | > 100 | > 100 | > 100 | > 100 | – | – | – | – | – | – | – | – | – | –
CC(=O)NCCc1c[nH]c2ccc(Cl)cc12 | > 100 | > 100 | > 100 | > 100 | > 100 | > 100 | > 100 | > 100 | > 100 | > 100 | – | – | – | – | – | – | – | – | – | –
CC1=CCC[C@@H]2[C@@](C)(Cc3cc(O)ccc3O)[C@H](C)CC[C@@]12C | 20.3 | 20.6 | 18.2 | 33.1 | 14.1 | 14.1 | 15.3 | 24 | 20.1 | 26.2 | – | – | – | – | – | – | – | – | – | –
CCCC(=O)OC[n+]1cccc(-c2c(COC(=O)NC(C)C)c(COC(=O)NC(C)C)c3n2CCC3)c1 | > 100 | > 100 | > 100 | > 100 | > 100 | 71.8 | > 100 | > 100 | > 100 | > 100 | – | – | – | – | – | – | – | – | – | –
O=C(O)c1cc(=O)[nH]c(=S)[nH]1 | > 100 | > 100 | > 100 | > 100 | > 100 | > 100 | > 100 | > 100 | > 100 | > 100 | – | – | – | – | – | – | – | – | – | –
COc1cc2c3c(n(CCN(C)C)c(=O)c2cc1OC)-c1cc2c(cc1C3=O)OCO2 | > 100 | > 100 | > 100 | > 52.6 | > 100 | > 100 | 38.4 | > 100 | > 100 | > 100 | 37 | > 84.9 | 18.6 | 6.17 | 0.137 | 2.51 | 8.31 | 0.677 | 27.1 | 12.6
